According to patent US20260176320A1, “MODULATORS OF G-PROTEIN COUPLED RECEPTORS” (priority 2018, published 2026):
Read-outs that look alike come from different tables or passages of the source. Numbered stars: 1 amine (or outer) side, 2 acyl side, 3 side chain; on linkers, the order of the positions; unused ones are H or OH. Square brackets hold non-standard residues; d marks the D form. Side chains are listed from the residue outwards. Peptide text beside a SMILES is read from it. * marks the point of attachment. X1 = O=C(CSCC(=O)*)NCCN1C(=O)c2ccccc2C1=O; γGlu = O=C(O)[C@H](CCC(=O)[*:2])N[*:1]; X2 = O=C(CSCC(=O)*)NCCN1C(=O)CSC1=O; Palmitoyl = CCCCCCCCCCCCCCCC(=O)*; Aib = CC(C)(N)C(=O)O

Columns and labels:
[1] = target: GLP-1R (Homo sapiens, UniProt P43220); test: HitHunter cAMP assay (GLP-1R); type: cell-based; conditions: cAMP; for Emax: read-out: (Emax) GLP-1R
GLP-1R, sequence (P43220 24-463): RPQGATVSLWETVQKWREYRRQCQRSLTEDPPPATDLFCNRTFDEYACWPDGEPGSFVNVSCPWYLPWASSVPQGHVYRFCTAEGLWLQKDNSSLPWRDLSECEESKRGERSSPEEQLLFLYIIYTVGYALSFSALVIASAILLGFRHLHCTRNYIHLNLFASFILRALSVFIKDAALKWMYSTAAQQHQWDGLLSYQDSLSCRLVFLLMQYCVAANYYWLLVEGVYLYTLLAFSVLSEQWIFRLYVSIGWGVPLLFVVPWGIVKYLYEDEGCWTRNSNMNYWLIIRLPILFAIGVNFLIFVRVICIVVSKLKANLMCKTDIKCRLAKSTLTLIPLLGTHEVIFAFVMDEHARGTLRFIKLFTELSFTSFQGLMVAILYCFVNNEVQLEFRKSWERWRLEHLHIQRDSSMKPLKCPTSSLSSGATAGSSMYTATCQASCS
Method in brief: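 cAMP accumulation read by luminescent HitHunter immunocompetition after 30 min room-temperature agonist stimulation. Agonists tested as 22-point twofold dilutions, in duplicate, on 10,000 cells/well in HBSS containing 625 μM IBMX, 10 mM HEPES and 0.2% BSA.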

[2] = target: T1, GIP-R (Homo sapiens, UniProt P48546); test: HitHunter cAMP assay (GIP-R); type: cell-based; conditions: cAMP; for Emax: read-out: (Emax) GIP-R
T1 sequence (P48546 22-466): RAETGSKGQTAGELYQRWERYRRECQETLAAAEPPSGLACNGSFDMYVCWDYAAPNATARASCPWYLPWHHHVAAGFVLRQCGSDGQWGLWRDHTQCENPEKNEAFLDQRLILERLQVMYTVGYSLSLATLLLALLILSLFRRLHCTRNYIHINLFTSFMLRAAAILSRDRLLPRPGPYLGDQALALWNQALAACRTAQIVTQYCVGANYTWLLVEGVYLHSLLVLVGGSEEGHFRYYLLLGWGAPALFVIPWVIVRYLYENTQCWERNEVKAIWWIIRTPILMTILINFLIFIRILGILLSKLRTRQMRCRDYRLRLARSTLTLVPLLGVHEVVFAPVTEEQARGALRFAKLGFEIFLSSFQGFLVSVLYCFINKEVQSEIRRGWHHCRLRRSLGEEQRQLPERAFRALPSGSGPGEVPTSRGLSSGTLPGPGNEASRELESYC
Method: Suspension cells were harvested and resuspended in 1×HBSS (+10 mM HEPES, 625 μM IBMX, 0.2% BSA) according to the following procedure: 5 μL of 2× cell suspension+1× antibody were added to each well, where the optimal cell density was 10,000 cells per well in a low volume 384-well plate. Agonist serial dilutions in a separate 384 well dilution plate in a 22-point series of 2× dilutions of agonist in DMSO were performed as follows. 80 μL of the highest concentration of Agonist/DMSO was added to well No. 1. 40 μL was removed from well No. 1 and added it to well No. 2, followed by gentle mixing. […] This process was repeated until well No. 22. Additional serial dilutions for additional agonists were set up in a similar manner. 50 nL of each 2× agonist serial dilution was added in duplicate to the designated agonist rows of the assay plate using the Labcyte ECHO. Assay plate was incubated for 30 minutes at room temperature. Following agonist incubation, 5 μL of cAMP Antibody Reagent was added to all wells. […] Plates were spun down briefly. Assay plate was incubated for 1 hour at room temperature in the dark for the immunocompetition reaction to occur. […] Plates were spun down briefly. Assay plate was incubated O/N at room temperature in the dark. Samples were read on Tecan i-control plate reader using luminescence mode with 300 ms integration time. Data analysis was performed using GraphPad Prism.

[3] = Table 3, read-out: EC50 GLP-1R/nM
[4] = Table 3A, read-out: EC50 GLP-1R/nM
[5] = Table 3, read-out: EC50 GIP-R/nM
[6] = Table 3A, read-out: EC50 GIP-R/nM
[7] = read-out: (Emax) GIP-R at 1 μM, Table 3

Compound	Emax ([1]; Table 3)	EC50 [1, 3]	Emax ([1]; Table 3A)	EC50 [1, 4]	EC50 [2, 5]	EC50 [2, 6]	Emax at 1 µM [2, 7]	Emax ([2]; Table 3A)	EC50 ([1]; EC50 GLP-1R/nM, Table 3)	EC50 ([1]; EC50 GLP-1R/nM, Table 3A)	EC50 ([2]; EC50 GIP-R/nM, Table 3)	EC50 ([2]; EC50 GIP-R/nM, Table 3A)	Emax ([2]; Table 3)	Emax at 1 µM ([2]; read-out: (Emax) GIP-R at 1 μM, Table 3A)
CC[C@H](C)[C@H](NC(=O)[C@H](CO)NC(=O)[C@H](Cc1ccc(O)cc1)NC(=O)[C@H](CC(=O)O)NC(=O)[C@H](CO)NC(=O)[C@@H](NC(=O)[C@H](Cc1ccccc1)NC(=O)[C@@H](NC(=O)CNC(=O)[C@H](CCC(=O)O)NC(=O)CC(C)(C)CC(=O)NCCN1C(=O)CSC1=O)[C@@H](C)O)[C@@H](C)O)C(=O)N[C@@H](Cc1ccc(O)cc1)C(=O)N[C@@H](CC(C)C)C(=O)N[C@@H](CC(=O)O)C(=O)N[C@@H](CCCCN)C(=O)N[C@@H](CCC(N)=O)C(=O)N[C@@H](C)C(=O)N[C@@H](C)C(=O)NC(C)(C)C(=O)N[C@@H](CCC(=O)O)C(=O)N[C@@H](Cc1ccccc1)C(=O)N[C@H](C(=O)N[C@@H](CC(N)=O)C(=O)N[C@@H](Cc1c[nH]c2ccccc12)C(=O)N[C@@H](CC(C)C)C(=O)N[C@@H](CC(C)C)C(=O)N[C@@H](C)C(=O)NCC(=O)NCC(=O)N1CCC[C@H]1C(=O)N[C@@H](CO)C(=O)N[C@@H](CO)C(=O)NCC(=O)N[C@@H](C)C(=O)N1CCC[C@H]1C(=O)N1CCC[C@H]1C(=O)N1CCC[C@H]1C(=O)N[C@@H](CO)C(=O)N[C@@H](CCCCN)C(N)=O)C(C)C [Compound 122]	91%	1 to 10 nM	91%	1 to 10 nM	> 1000 nM	> 1000 nM	< 1%	–	–	–	–	–	–	–
CCCCCCCCCCCCCCCC(=O)N[C@@H](CCC(=O)NCCCC[C@H](NC(=O)[C@H](CO)NC(=O)[C@@H]1CCCN1C(=O)[C@@H]1CCCN1C(=O)[C@@H]1CCCN1C(=O)[C@H](C)NC(=O)CNC(=O)[C@H](CO)NC(=O)[C@H](CO)NC(=O)[C@@H]1CCCN1C(=O)CNC(=O)CNC(=O)[C@H](C)NC(=O)[C@H](CC(C)C)NC(=O)[C@H](CC(C)C)NC(=O)[C@H](Cc1c[nH]c2ccccc12)NC(=O)[C@H](CC(N)=O)NC(=O)[C@@H](NC(=O)[C@H](Cc1ccccc1)NC(=O)[C@H](CCC(=O)O)NC(=O)C(C)(C)NC(=O)[C@H](C)NC(=O)[C@H](C)NC(=O)[C@H](CCC(N)=O)NC(=O)[C@H](CCCCN)NC(=O)[C@H](CC(=O)O)NC(=O)[C@H](CC(C)C)NC(=O)[C@H](Cc1ccc(O)cc1)NC(=O)[C@@H](NC(=O)[C@H](CO)NC(=O)[C@H](Cc1ccc(O)cc1)NC(=O)[C@H](CC(=O)O)NC(=O)[C@H](CO)NC(=O)[C@@H](NC(=O)[C@H](Cc1ccccc1)NC(=O)[C@@H](NC(=O)CNC(=O)[C@H](CCCC(=O)O)NC(=O)CSCC(=O)NCCN1CCCCC1=O)[C@@H](C)O)[C@@H](C)O)[C@@H](C)CC)C(C)C)C(N)=O)C(=O)O [Compound 219]	–	–	89%	10 to 100 nM	–	1 to 10 nM	–	75%	–	–	–	–	–	–
CCCCCCCCCCCCCCCC(=O)N[C@@H](CCC(=O)NCCCC[C@H](NC(=O)[C@H](CO)NC(=O)[C@@H]1CCCN1C(=O)[C@@H]1CCCN1C(=O)[C@@H]1CCCN1C(=O)[C@H](C)NC(=O)CNC(=O)[C@H](CO)NC(=O)[C@H](CO)NC(=O)[C@@H]1CCCN1C(=O)CNC(=O)CNC(=O)[C@H](C)NC(=O)[C@H](CC(C)C)NC(=O)[C@H](CC(C)C)NC(=O)[C@H](Cc1c[nH]c2ccccc12)NC(=O)[C@H](CC(N)=O)NC(=O)[C@@H](NC(=O)[C@H](Cc1ccccc1)NC(=O)[C@H](CCC(=O)O)NC(=O)C(C)(C)NC(=O)[C@H](C)NC(=O)[C@H](C)NC(=O)[C@H](CCC(N)=O)NC(=O)[C@H](CCCCN)NC(=O)[C@H](CC(=O)O)NC(=O)[C@H](CC(C)C)NC(=O)[C@H](Cc1ccc(O)cc1)NC(=O)[C@@H](NC(=O)[C@H](CO)NC(=O)[C@H](Cc1ccc(O)cc1)NC(=O)[C@H](CC(=O)O)NC(=O)[C@H](CO)NC(=O)[C@@H](NC(=O)[C@H](Cc1ccccc1)NC(=O)[C@@H](NC(=O)CNC(=O)[C@H](CCC(=O)O)NC(=O)CCNC(=O)CCN1CCCCCC1=O)[C@@H](C)O)[C@@H](C)O)[C@@H](C)CC)C(C)C)C(N)=O)C(=O)O [Compound 267]	–	–	100%	–	–	10 to 100 nM	–	40%	–	–	–	–	–	–
CCCCCCCCCCCCCCCC(=O)N[C@@H](CCC(=O)NCCCC[C@H](NC(=O)CNC(=O)[C@H](CCCNC(=N)N)NC(=O)CNC(=O)[C@H](C)NC(=O)[C@H](CC(C)C)NC(=O)[C@H](CC(C)C)NC(=O)[C@H](Cc1c[nH]c2ccccc12)NC(=O)[C@H](CC(N)=O)NC(=O)[C@@H](NC(=O)[C@H](Cc1ccccc1)NC(=O)[C@H](CCC(=O)O)NC(=O)C(C)(C)NC(=O)[C@H](C)NC(=O)[C@H](C)NC(=O)[C@H](CCC(N)=O)NC(=O)[C@H](CCCCN)NC(=O)[C@H](CC(=O)O)NC(=O)[C@H](CC(C)C)NC(=O)[C@H](Cc1ccc(O)cc1)NC(=O)[C@@H](NC(=O)[C@H](CO)NC(=O)[C@H](Cc1ccc(O)cc1)NC(=O)[C@H](CC(=O)O)NC(=O)[C@H](CO)NC(=O)[C@@H](NC(=O)[C@H](Cc1ccccc1)NC(=O)[C@@H](NC(=O)CNC(=O)[C@H](CCC(=O)O)NC(=O)CSCC(=O)NCCN1C(=O)CSC1=O)[C@@H](C)O)[C@@H](C)O)[C@@H](C)CC)C(C)C)C(=O)NCC(=O)N1CCC[C@H]1C(=O)N[C@@H](CO)C(=O)N[C@@H](CO)C(=O)NCC(=O)N[C@@H](C)C(=O)N1CCC[C@H]1C(=O)N1CCC[C@H]1C(=O)N1CCC[C@H]1C(=O)N[C@@H](CO)C(N)=O)C(=O)O [Compound 198] (X2-EGTFTSDYSIYLDKQAA[Aib]EFVNWLLAGRGK([γGlu-Palmitoyl])GPSSGAPPPS-NH2)	–	–	95%	10 to 100 nM	–	10 to 100 nM	–	81%	–	–	–	–	–	–
CC[C@H](C)[C@H](NC(=O)[C@H](CO)NC(=O)[C@H](Cc1ccc(O)cc1)NC(=O)[C@H](CC(=O)O)NC(=O)[C@H](CO)NC(=O)[C@@H](NC(=O)[C@H](Cc1ccccc1)NC(=O)[C@@H](NC(=O)CNC(=O)[C@H](CCC(=O)O)NC(=O)CSCC(=O)NCCN1C(=O)c2ccccc2C1=O)[C@@H](C)O)[C@@H](C)O)C(=O)N[C@@H](Cc1ccc(O)cc1)C(=O)N[C@@H](CC(C)C)C(=O)N[C@@H](CC(=O)O)C(=O)N[C@@H](CCCCN)C(=O)N[C@@H](CCC(N)=O)C(=O)N[C@@H](C)C(=O)N[C@@H](C)C(=O)NC(C)(C)C(=O)N[C@@H](CCC(=O)O)C(=O)N[C@@H](Cc1ccccc1)C(=O)N[C@H](C(=O)N[C@@H](CCC(=O)O)C(=O)N[C@@H](Cc1c[nH]c2ccccc12)C(=O)N[C@@H](CC(C)C)C(=O)N[C@@H](CC(C)C)C(=O)N[C@@H](C)C(=O)NCC(=O)NCC(=O)N1CCC[C@H]1C(=O)N[C@@H](CO)C(=O)N[C@@H](CO)C(=O)NCC(=O)N[C@@H](C)C(=O)N1CCC[C@H]1C(=O)N1CCC[C@H]1C(=O)N1CCC[C@H]1C(=O)N[C@@H](CO)C(=O)N[C@@H](CCCCN)C(N)=O)C(C)C [Compound 149] (X1-EGTFTSDYSIYLDKQAA[Aib]EFVEWLLAGGPSSGAPPPSK-NH2)	86 to 92%	–	86 to 92%	–	–	–	–	113%	1 to 10 nM	1 to 10 nM	< 0.1 nM	< 0.1 nM	113%	–
CC[C@H](C)[C@H](NC(=O)[C@H](CO)NC(=O)[C@H](Cc1ccc(O)cc1)NC(=O)[C@H](CC(=O)O)NC(=O)[C@H](CO)NC(=O)[C@@H](NC(=O)[C@H](Cc1ccccc1)NC(=O)[C@@H](NC(=O)CNC(=O)[C@H](CCC(=O)O)NC(=O)CSCC(=O)NCCN1C(=O)CN(C)C1=O)[C@@H](C)O)[C@@H](C)O)C(=O)N[C@@H](Cc1ccc(O)cc1)C(=O)N[C@@H](CC(C)C)C(=O)N[C@@H](CC(=O)O)C(=O)N[C@@H](CCCCN)C(=O)N[C@@H](CCC(N)=O)C(=O)N[C@@H](C)C(=O)N[C@@H](C)C(=O)NC(C)(C)C(=O)N[C@@H](CCC(=O)O)C(=O)N[C@@H](Cc1ccccc1)C(=O)N[C@H](C(=O)N[C@@H](CC(N)=O)C(=O)N[C@@H](Cc1c[nH]c2ccccc12)C(=O)N[C@@H](CC(C)C)C(=O)N[C@@H](CC(C)C)C(=O)N[C@@H](C)C(=O)NCC(=O)NCC(=O)N1CCC[C@H]1C(=O)N[C@@H](CO)C(=O)N[C@@H](CO)C(=O)NCC(=O)N[C@@H](C)C(=O)N1CCC[C@H]1C(=O)N1CCC[C@H]1C(=O)N1CCC[C@H]1C(=O)N[C@@H](CO)C(=O)N[C@@H](CCCCN)C(N)=O)C(C)C [Compound 112]	94%	10 to 100 nM	94%	10 to 100 nM	10 to 100 nM	10 to 100 nM	26%	–	–	–	–	–	–	26%
